According to publication PMC9599461, “Stereoselectivity in the Membrane Transport of Phenylethylamine Derivatives by Human Monoamine Transporters and Organic Cation Transporters 1, 2, and 3” (Biomolecules, 2022):

Legend:
NET = NET (Homo sapiens, UniProt P23975); assay: Stereoselective uptake into NET-overexpressing HEK293 cells; details: for Clint ± SEM: quotient of vmax over Km; for Vmax ± SEM / Km: HEK293 cells overexpressing human NET, racemic substrate, two minutes; for Vmax ± SEM: net uptake; for Km: read-out: Km ± SEM, net uptake minus empty vector control;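 for all read-outs here: intracellular enantiomers quantified in cell lysates by chiral HPLC-MS/MS after a 2 min substrate incubation, with uptake normalized to total cellular protein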
DAT = DAT (Homo sapiens, UniProt Q01959); assay: Stereoselective uptake into DAT-overexpressing HEK293 cells; details: for Clint ± SEM: quotient of vmax over Km;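 for all read-outs here: intracellular accumulation measured by chiral HPLC-MS/MS in stably transfected HEK293 cells, normalized to total protein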
SERT = SERT (Homo sapiens, UniProt P31645); assay: Stereoselective uptake into SERT-overexpressing HEK293 cells; details: SERT;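 note: uptake into HEK293 cells stably expressing human SERT over 2 min, enantiomers measured in cell lysate by chiral HPLC-MS/MS, normalized to total protein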
Protocol: (§1) All transport experiments were carried out in HEK293 cells stably overexpressing human MATs or OCTs. […] All cells were regularly cultivated in DMEM supplemented with 10% (v/v) FCS, penicillin (100 U/mL) and streptomycin (100 μg/mL)and kept in culture for no longer than 30 passages.
(§2) For the uptake experiments, 300,000 cells were plated in poly-D-lysine precoated 24-well plates 48 h ahead of the transport experiment. On the day of experiment, cells were initially washed once with 37 °C pre-warmed HBSS+ (Hanks buffered salt solution supplemented with 10 mM HEPES) and subsequently incubated with the substrates dissolved in pre-warmed HBSS+ for exactly two minutes. Incubation was stopped by adding ice-cold HBSS+ followed by two washing steps. After this, cells were lysed with 80% acetonitrile containing 10 ng/mL milnacipran as internal standard for high-performance liquid chromatography coupled to tandem mass spectrometry (HPLC-MS/MS) analysis. For every experiment, two additional wells per cell line were lysed using RIPA buffer for protein quantification. Total protein was quantified using the bicinchoninic acid assay [42]. This was later used for normalization of the uptake data.
Intracellularly accumulated test substances were quantified by HPLC-MS/MS analysis using a Shimadzu Nexera HPLC system with a SIL-30AC autosampler, a CTO-20AC column oven, a LC-30AD pump, and a CBM-20A controller (Shimadzu, Kyoto, Japan). […] CBH HPLC column (100 × 3 mm inner dimension with 5 μM particle size; Sigma-Aldrich, Darmstadt, Germany) with a corresponding 10 × 3 mm guard column. Reversed phased chromatography was carried out using an ammonium acetate (NH4Ac) buffered aqueous mobile phase with isopropyl alcohol (IPA) as organic solvent. […] The order of elution of the enantiomers was obtained from available reference literature [43] or by applying enantiopure reference compounds to the chiral HPLC.
(§3) Detection was performed with an API 4000 tandem mass spectrometer (AB SCIEX, Darmstadt, Germany) operating in multiple-reaction-monitoring mode. Quantification was performed using the Analyst 1.6.2 software (AB SCIEX, Darmstadt, Germany) and quantified by comparison to standard curves with known concentrations.
All uptake data were normalized to protein content to account for variation in the number of seeded sells. Transporter-mediated net uptake was calculated by subtracting uptake into empty vector-transfected control cells from uptake into transporter-transfected cells. […] Vmax refers to the maximum transport velocity and Km is defined as the substance concentration required to reach half of vmax. The intrinsic clearance Clint was calculated as the quotient of vmax over Km.

OCT1 = molecular target: T1, OCT1 (Homo sapiens, UniProt O15245); assay: Stereoselective uptake into OCT1-overexpressing HEK293 cells; details: for Clint ± SEM / selectivity ratio at 2 min: OCT1; for Clint ± SEM: quotient of vmax over Km; for selectivity ratio at 2 min: human, ratio between enantiomers; for Vmax ± SEM / Km: HEK293 cells overexpressing human OCT1, racemic substrate, two minutes; for Vmax ± SEM: net uptake; for Km: read-out: Km ± SEM, net uptake minus empty vector control;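 for all read-outs here: enantiomers quantified inside cells by chiral HPLC-MS/MS, uptake normalized to total protein from bicinchoninic acid assay, substrates applied in HBSS+ buffer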
T1 sequence (O15245 1-554): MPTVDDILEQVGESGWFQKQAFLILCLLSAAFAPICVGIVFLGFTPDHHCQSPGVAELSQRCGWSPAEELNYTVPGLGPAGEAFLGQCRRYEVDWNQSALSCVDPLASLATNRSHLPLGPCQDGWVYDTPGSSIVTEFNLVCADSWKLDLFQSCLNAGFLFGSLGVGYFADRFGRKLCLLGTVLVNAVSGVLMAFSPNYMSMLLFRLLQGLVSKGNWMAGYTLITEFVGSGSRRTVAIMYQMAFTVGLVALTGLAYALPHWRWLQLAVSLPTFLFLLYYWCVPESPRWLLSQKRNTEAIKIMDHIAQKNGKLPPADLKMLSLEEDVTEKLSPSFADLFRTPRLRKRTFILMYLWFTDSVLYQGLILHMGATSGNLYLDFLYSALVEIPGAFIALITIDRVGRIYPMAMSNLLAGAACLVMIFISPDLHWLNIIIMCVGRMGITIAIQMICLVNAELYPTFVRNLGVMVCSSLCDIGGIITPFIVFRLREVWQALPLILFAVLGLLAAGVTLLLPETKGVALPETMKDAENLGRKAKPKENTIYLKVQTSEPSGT
Protocol: as §1, §2
(§4) Intracellularly accumulated test substances were quantified by HPLC-MS/MS analysis using a Shimadzu Nexera HPLC system with a SIL-30AC autosampler, a CTO-20AC column oven, a LC-30AD pump, and a CBM-20A controller (Shimadzu, Kyoto, Japan). Stereoselective chromatography was carried out on a [sequence] CBH HPLC column (100 × 3 mm inner dimension with 5 μM particle size; Sigma-Aldrich, Darmstadt, Germany) with a corresponding 10 × 3 mm guard column. Reversed phased chromatography was carried out using an ammonium acetate (NH4Ac) buffered aqueous mobile phase with isopropyl alcohol (IPA) as organic solvent. […] The order of elution of the enantiomers was obtained from available reference literature [43] or by applying enantiopure reference compounds to the chiral HPLC. […] Given the structural similarity of the investigated substances and the fact that separation was performed on the same column with almost identical mobile phases, we assume that this order of elution for our compound set is always the (R)- before the (S)-enantiomer.
as §3
(§5) All uptake data were normalized to protein content to account for variation in the number of seeded sells. Transporter-mediated net uptake was calculated by subtracting uptake into empty vector-transfected control cells from uptake into transporter-transfected cells. Kinetic parameters were then determined after non-linear regression following the Michaelis–Menten equation (v = vmax × [S]/(Km + [S])) using GraphPad Prism (Version 5.01 for Windows, GraphPad Software, La Jolla, CA, USA). Vmax refers to the maximum transport velocity and Km is defined as the substance concentration required to reach half of vmax. The intrinsic clearance Clint was calculated as the quotient of vmax over Km.

OCT3 = molecular target: T2, OCT3 (Homo sapiens, UniProt O75751); assay: Stereoselective uptake into OCT3-overexpressing HEK293 cells; details: for Clint ± SEM: quotient of vmax over Km; for Vmax ± SEM / Km: HEK293 cells overexpressing human OCT3, racemic substrate, two minutes; for Vmax ± SEM: net uptake; for Km: read-out: Km ± SEM, net uptake minus empty vector control;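 for all read-outs here: intracellular accumulation in HEK293 cells measured by chiral HPLC-MS/MS after a 2 min substrate exposure at 37 °C, uptake normalized to total protein (bicinchoninic acid assay)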
T2 sequence (O75751 1-556): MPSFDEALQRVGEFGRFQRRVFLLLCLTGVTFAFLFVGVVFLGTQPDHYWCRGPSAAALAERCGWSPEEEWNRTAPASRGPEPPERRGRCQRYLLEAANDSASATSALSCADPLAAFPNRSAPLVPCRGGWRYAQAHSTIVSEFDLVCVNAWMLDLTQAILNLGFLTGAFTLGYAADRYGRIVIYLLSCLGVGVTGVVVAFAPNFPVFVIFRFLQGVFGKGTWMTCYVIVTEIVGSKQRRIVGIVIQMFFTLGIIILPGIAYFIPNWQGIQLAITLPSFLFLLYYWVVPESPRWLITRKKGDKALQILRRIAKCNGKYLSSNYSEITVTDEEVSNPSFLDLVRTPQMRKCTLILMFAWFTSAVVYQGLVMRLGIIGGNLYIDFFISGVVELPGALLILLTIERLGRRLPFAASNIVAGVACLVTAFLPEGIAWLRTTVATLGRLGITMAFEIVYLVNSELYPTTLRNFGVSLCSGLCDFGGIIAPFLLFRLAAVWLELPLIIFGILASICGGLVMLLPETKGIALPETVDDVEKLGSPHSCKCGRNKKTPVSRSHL
Protocol: as §1, §2, §4, §3, §5

OCT2 = molecular target: T3, OCT2 (Homo sapiens, UniProt O15244); assay: Stereoselective uptake into OCT2 (wild-type)-overexpressing HEK293 cells; details: for Clint ± SEM / selectivity ratio at 2 min: OCT2; for Clint ± SEM: quotient of vmax over Km; for selectivity ratio at 2 min: human, ratio between enantiomers; for Vmax ± SEM / Km: HEK293 cells overexpressing human OCT2, racemic substrate, two minutes; for Vmax ± SEM: net uptake; for Km: read-out: Km ± SEM, net uptake minus empty vector control
T3 sequence (O15244 1-555 S270A): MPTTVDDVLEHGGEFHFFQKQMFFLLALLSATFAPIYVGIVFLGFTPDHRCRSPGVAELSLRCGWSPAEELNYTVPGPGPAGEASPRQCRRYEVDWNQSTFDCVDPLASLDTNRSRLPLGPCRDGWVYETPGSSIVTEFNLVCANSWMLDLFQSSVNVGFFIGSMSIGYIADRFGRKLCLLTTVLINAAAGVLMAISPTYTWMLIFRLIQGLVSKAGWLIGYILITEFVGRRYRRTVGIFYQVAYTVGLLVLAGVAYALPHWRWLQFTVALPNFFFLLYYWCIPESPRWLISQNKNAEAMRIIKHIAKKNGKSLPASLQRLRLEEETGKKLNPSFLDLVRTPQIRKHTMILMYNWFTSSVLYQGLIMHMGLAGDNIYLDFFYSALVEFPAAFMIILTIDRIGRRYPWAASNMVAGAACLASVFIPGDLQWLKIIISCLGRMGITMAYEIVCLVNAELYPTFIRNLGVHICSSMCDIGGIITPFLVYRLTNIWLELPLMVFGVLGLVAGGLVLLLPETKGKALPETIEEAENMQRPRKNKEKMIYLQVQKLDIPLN

OCT2 A270S variant = assay: Stereoselective uptake into OCT2 A270S variant-overexpressing HEK293 cells; details: OCT2 wild-type versus A270S, 100 μM racemic substance, two minutes; given as for WT; listed as (S)-Normetanephrine;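 note: uptake into HEK293 cells stably overexpressing human OCT2 variants, intracellular enantiomers quantified by chiral HPLC-MS/MS and normalized to total protein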
[1] = ratio between enantiomers, given as for (S) or for 2
[2] = Stereoselectivity Km, given as for (R) or for 1 (first-eluting)

NET, sequence (P23975 whole entry): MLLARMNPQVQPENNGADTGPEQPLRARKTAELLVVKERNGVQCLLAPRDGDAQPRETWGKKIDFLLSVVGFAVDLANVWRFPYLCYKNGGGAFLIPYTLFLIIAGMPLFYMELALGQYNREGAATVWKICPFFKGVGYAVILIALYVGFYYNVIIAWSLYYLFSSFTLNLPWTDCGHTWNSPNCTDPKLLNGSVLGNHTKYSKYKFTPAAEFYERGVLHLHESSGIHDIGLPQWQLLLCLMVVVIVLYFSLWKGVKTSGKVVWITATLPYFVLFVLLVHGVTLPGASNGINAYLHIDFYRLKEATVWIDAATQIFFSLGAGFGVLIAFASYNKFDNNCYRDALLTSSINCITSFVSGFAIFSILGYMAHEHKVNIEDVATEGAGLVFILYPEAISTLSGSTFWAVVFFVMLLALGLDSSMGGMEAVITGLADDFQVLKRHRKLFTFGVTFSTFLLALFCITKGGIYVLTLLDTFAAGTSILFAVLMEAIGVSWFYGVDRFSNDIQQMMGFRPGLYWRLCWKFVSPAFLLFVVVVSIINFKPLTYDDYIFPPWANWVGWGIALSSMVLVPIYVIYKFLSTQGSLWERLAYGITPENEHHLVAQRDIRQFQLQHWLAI
SERT, sequence (P31645 whole entry): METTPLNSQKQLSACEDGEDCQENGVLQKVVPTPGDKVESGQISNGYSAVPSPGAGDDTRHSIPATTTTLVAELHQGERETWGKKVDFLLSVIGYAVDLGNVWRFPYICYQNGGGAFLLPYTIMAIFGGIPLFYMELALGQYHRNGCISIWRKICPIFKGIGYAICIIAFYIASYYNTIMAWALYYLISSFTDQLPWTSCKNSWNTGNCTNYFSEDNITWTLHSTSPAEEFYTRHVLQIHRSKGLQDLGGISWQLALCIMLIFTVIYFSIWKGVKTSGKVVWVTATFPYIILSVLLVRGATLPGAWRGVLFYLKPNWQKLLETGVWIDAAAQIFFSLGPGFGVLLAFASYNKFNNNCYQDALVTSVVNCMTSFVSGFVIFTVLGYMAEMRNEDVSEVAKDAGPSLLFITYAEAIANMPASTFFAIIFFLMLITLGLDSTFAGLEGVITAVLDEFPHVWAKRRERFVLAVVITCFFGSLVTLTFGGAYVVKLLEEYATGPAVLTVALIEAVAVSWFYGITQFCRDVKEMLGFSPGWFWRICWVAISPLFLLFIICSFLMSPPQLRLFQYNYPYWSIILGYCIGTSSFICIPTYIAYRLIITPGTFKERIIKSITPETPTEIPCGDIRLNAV
DAT, sequence (Q01959 whole entry): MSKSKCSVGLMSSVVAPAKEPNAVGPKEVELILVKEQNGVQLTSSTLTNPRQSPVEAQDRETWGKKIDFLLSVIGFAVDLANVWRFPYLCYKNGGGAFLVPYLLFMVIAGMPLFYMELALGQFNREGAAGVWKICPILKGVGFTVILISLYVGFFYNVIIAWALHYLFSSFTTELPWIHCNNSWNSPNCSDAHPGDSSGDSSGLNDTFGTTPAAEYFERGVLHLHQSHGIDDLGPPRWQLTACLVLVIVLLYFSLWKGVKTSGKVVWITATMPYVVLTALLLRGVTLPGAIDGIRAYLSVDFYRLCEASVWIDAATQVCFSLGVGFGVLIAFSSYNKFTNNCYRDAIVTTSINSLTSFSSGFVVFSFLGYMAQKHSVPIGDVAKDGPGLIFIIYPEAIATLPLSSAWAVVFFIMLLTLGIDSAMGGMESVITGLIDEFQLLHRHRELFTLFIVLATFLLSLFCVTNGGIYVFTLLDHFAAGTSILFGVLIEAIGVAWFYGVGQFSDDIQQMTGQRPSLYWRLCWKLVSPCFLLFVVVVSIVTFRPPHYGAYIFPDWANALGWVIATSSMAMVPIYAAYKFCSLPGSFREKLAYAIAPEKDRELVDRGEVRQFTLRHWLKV

Row | Compound | Clint ± SEM (NET; NET) | Clint ± SEM (OCT1) | Clint ± SEM (OCT3; OCT3) | Clint ± SEM (OCT2) | Vmax ± SEM (NET) | Km (NET) [µM] | Clint ± SEM (DAT; DAT) | Vmax ± SEM (OCT1) | Km (OCT1) [µM] | Vmax ± SEM (OCT3) | Km (OCT3) [µM] | Vmax ± SEM (OCT2) | Km (OCT2) [µM] | other results
1 | COc1cc(C(O)CN)ccc1O (single isomer, unassigned) [Normetanephrine-2, Normetanephrine] | 3.47 mL × g Protein^−1 × min^−1 | 2.65 mL × g Protein^−1 × min^−1 | 21.6 mL × g Protein^−1 × min^−1 | 5.92 mL × g Protein^−1 × min^−1 | – | – | – | – | – | – | – | – | – | Stereoselectivity Vmax (NET; NET, ratio between enantiomers, given as for (R) or for 1): 1.06 fold; Stereoselectivity Km (NET; NET, ratio between enantiomers, given as for (R) or for 1 (first-eluting)): 1.35 fold; Stereoselectivity ClInt (NET; NET, ratio between enantiomers, given as for (S) or for 2): 1.28 fold; Saturable net uptake (DAT; DAT, result in words): No saturable net uptake; Clint ± SEM (SERT; quotient of vmax over Km): 4.05 mL × g Protein^−1 × min^−1; Stereoselectivity Km (SERT; ratio between enantiomers, given as for (R) or for 1 (first-eluting)): 1.08 fold; Stereoselectivity ClInt (SERT; [1]): 1.28 fold; Stereoselectivity Vmax (SERT; [1]): 1.67 fold; selectivity ratio at 2 min (OCT1; Stereoselectivity ClInt, given as for (S) or for 2): 1.08; selectivity ratio at 2 min (OCT1; [2]): 1.59; selectivity ratio at 2 min (OCT1; Stereoselectivity Vmax, given as for (R) or for 1): 1.47; Stereoselectivity Vmax (OCT3; OCT3, ratio between enantiomers, given as for (R) or for 1): 1.09 fold; Stereoselectivity Km (OCT3; OCT3, ratio between enantiomers, given as for (R) or for 1 (first-eluting)): 1.22 fold; Stereoselectivity ClInt (OCT3; OCT3, ratio between enantiomers, given as for (S) or for 2): 1.12 fold; selectivity ratio at 2 min (OCT2; Stereoselectivity ClInt, given as for (R) or for 1): 1.56; selectivity ratio at 2 min (OCT2; [2]): 1.32; selectivity ratio at 2 min (OCT2; Stereoselectivity Vmax, given as for (S) or for 2): 2.06; Transporter selectivity (OCT2 A270S variant): 1.08 fold
2 | (R)-Epinephrine | 91.7 ± 21.3 mL × g Protein^−1 × min^−1 | 4.06 ± 1.37 mL × g Protein^−1 × min^−1 | 20.9 ± 6.7 mL × g Protein^−1 × min^−1 | 14.2 ± 4.0 mL × g Protein^−1 × min^−1 | 1027 ± 37 pmol × mg Protein^−1 × min^−1 | 11.2 ± 2.2 | 64.7 ± 26.7 mL × g Protein^−1 × min^−1 | 2419 ± 189 pmol × mg Protein^−1 × min^−1 | 596 ± 155 | 9742 ± 698 pmol × mg Protein^−1 × min^−1 | 466 ± 116 | 7277 ± 483 pmol × mg Protein^−1 × min^−1 | 513 ± 110 | Km (DAT; read-out: Km ± SEM, HEK293 cells overexpressing human DAT, racemic substrate, two minutes, net uptake minus empty vector control): 34 ± 11.6 µM
3 | CNC[C@@H](O)c1ccc(O)c(O)c1 [(S)-Epinephrine] | – | – | 11.7 ± 4.9 mL × g Protein^−1 × min^−1 | 6.83 ± 2.57 mL × g Protein^−1 × min^−1 | 557 ± 22 pmol × mg Protein^−1 × min^−1 | 8.52 ± 1.91 | 37.9 ± 14.8 mL × g Protein^−1 × min^−1 | 2514 ± 266 pmol × mg Protein^−1 × min^−1 | 671 ± 230 | 5336 ± 502 pmol × mg Protein^−1 × min^−1 | 455 ± 149 | 3993 ± 360 pmol × mg Protein^−1 × min^−1 | 585 ± 167 | Vmax ± SEM (DAT; HEK293 cells overexpressing human DAT, racemic substrate, two minutes, net uptake): 1226 ± 90 pmol × mg Protein^−1 × min^−1
